Test results published in patent publication US20100204090A1, “USE OF A PEPTIDE AS A THERAPEUTIC AGENT” (priority 2007, published 2010).
Bridge positions count the residues as written; N and C are the ends. Peptide text beside a SMILES is read from it.

What was measured:
[1] = tested on: HepG2-2.2.15 cells; experiment: Cell viability (dye uptake) in the HBV assay; format: cell-based; conditions: peptide 10 micrograms per ml, % cell control
[2] = tested on: MRC-5 cells; conditions: human, 6 days
[3] = tested on: Human Peripheral Blood Mononuclear Cells (PBMC), B cell proliferation; experiment: B cell proliferation assay (SAC plus IL-2 stimulated PBMC, 3H-thymidine); format: cell-based; conditions: peptide 10 micrograms per ml, 3 days plus 12 hours 3H-thymidine
[4] = tested on: A549 cells; experiment: Propidium iodide cell cycle assay; format: cell-based, human; conditions: peptide 10 micrograms per ml, 24 hours, FACS
[5] = Cytotoxicity testing in MRC-5 cells (CellTiter 96); conditions: human, MRC-5 cells (embryonal lung fibroblasts)
[6] = tested on: spleen cells of Ovalbumin-immunized Balb/c mice; experiment: Th1/Th2 cytokine profiling assay (Ovalbumin-restimulated spleen cells, CBA kit); format: cell-based, mouse; conditions: peptide 10 micrograms per ml; Ovalbumin 10 micrograms/ml restimulation; 72 hours
Excerpt: The Balb/c mice (originated in 1923, it is a popular strain and is used in many different research disciplines. Also classified as an inbred from the production of 20 or more successive brother-sister matings, the Balb/c mouse is albino and small in size) were immunized on Days 1, 15, and 29 with Ovalbumin (Ovalbumin is the main protein found in egg white, commonly used to stimulate an immunological reaction in test animals) in PBS (5 micrograms/injection). On day 50, spleens of the mice were harvested (3 weeks after last boost with Ovalbumin). […] Thereafter, additional Ovalbumin was added to the cells at 10 micrograms/ml for in vitro restimulation of the cells. 72 hours later, cell supernatants were harvested and assayed using the Becton Dickinson Mouse Th1/Th2 Cytokine CBA Kit. This kit can be used to measure Interleukin-2 (IL-2), Interleukin-4 (IL-4), Interleukin-5 (IL-5), Interferon-γ (IFN-γ), and Tumor Necrosis Factor-α (TNF-α) protein levels in a single sample.

[7] = tested on: Human Peripheral Blood Mononuclear Cells (PBMC), T cell proliferation; experiment: T cell proliferation assay (PHA-stimulated PBMC, 3H-thymidine); format: cell-based; conditions: peptide 10 micrograms per ml, 3 days plus 12 hours 3H-thymidine
[8] = tested on: HCMV strain AD169; experiment: HCMV plaque reduction assay in MRC-5 cells; format: cell-based, human cytomegalovirus; conditions: HCMV AD169 in MRC-5 cells; peptide 10 micrograms per ml; 7-10 days
Excerpt: Ganciclovir was used as positive control.

[9] = tested on: TNF alpha production in PBMC-derived macrophages; experiment: TNF alpha production assay (LPS-stimulated macrophages, ELISA); format: cell-based, human; conditions: peptide 10 micrograms per ml, lipopolysaccharide 200 ng/ml, overnight
Excerpt: Not stimulated macrophages served as negative background control.

[10] = tested on: Primary Human endothelial cells (HUVEC); experiment: Endothelial cell migration assay; format: cell-based; conditions: peptide 10 micrograms per ml, 22 hours
[11] = Cell viability (dye uptake) in the HBV assay; format: cell-based; conditions: human, HepG2-2.2.15 cells (stable line containing HBV ayw genome), peptide 10 micrograms per ml, % cell control
[12] = tested on: RAW 264.7 cells; experiment: Phagocytosis assay (Fluorescein-labeled Escherichia coli, flow cytometry); format: cell-based, mouse; conditions: peptide 10 micrograms per ml, 30 min preincubation, 60 min ingestion
[13] = tested on: hepatitis B virus (HBV) ayw strain; experiment: HBV replication assay in HepG2-2.2.15 cells (secreted HBV DNA, TaqMan PCR); format: cell-based; conditions: peptide 10 micrograms per ml; six days; HBV DNA in supernatant, % virus control
[14] = human, cells plus peptide only
[15] = tested on: HUVEC; experiment: Endothelial tube formation assay; format: cell-based, human; conditions: peptide 10 micrograms per ml, 20 hours
Excerpt: Positive control was vehicle only.

Nc1ccn([C@@H]2CS[C@H](CO)O2)c(=O)n1 [Compound 3TC, Lamivudine, reference compound]
% Cell viability [1]: 95.8%

Nc1nc(O)c2ncn(COC(CO)CO)c2n1 [Ganciclovir]
% Cell viability [2]: 100%

CC[C@H](C)[C@@H]1NC(=O)CNC(=O)[C@H](CCCNC(=N)N)NC(=O)CNC(=O)[C@@H]2CSSC[C@H](NC1=O)C(=O)N[C@@H](CCCNC(=N)N)C(=O)N[C@H]1CSSC[C@H](NC(=O)[C@H](CCCNC(=N)N)NC(=O)[C@@H]3CSSC[C@H](NC(=O)[C@H]([C@@H](C)CC)NC1=O)C(=O)NCC(=O)N[C@@H](CCCNC(=N)N)C(=O)NCC(=O)N[C@@H]([C@@H](C)CC)C(=O)N3)C(=O)N[C@@H]([C@@H](C)CC)C(=O)N2 [Retrocyclin-1] (cyclo(GICRCICGRGICRCICGR); disulfide 3-16, 5-14, 7-12 (inferred); ring closure inferred)
% of SAC/IL2 induced control [3]: 85.0%
Cell cycle analysis G0/G1 [4]: 55.3
Cell cycle analysis G2/M [4]: 12.1
Cell cycle analysis S [4]: 32.6
viability at 144 h [5]: 100%
IFNγ spleen cells; TH1 response (% of control) [6]: 137.6 % of control
IL-2 spleen cells (% of control) [6]: 157.7 % of control
IL-4 spleen cells; TH2 response (% of control) [6]: 67.1 % of control
IL-5 spleen cells; TH2 response (% of control) [6]: 80.7 % of control
TNF-a spleen cells; TH1 response (% of control) [6]: 152.5 % of control
% of PHA induced control [7]: 81.6%
% plaque reduction [8]: 25.8%
% of LPS induction [9]: 115.1%
% inhibition of migration [10]: 8%
viability at 144 h, 10 micrograms per ml [11]: 78.5%
% of control phagocytosis [12]: 79.4%
% inhibition of HBV replication in HEP G2 cells [13]: 72.2%
viability at 10 micrograms per ml [14]: 89.3%
% inhibition of tube formation [15]: 100%
